Measurements as given in patent US6946492B2, “Use of C2-substituted indan-1-one systems for preparing medicaments for the treatment of obesity” (Aventis Pharma Deutschland GmbH, priority 2001, dated 2005).
Each block holds one molecule with its values, some of them ahead of it.

How the values were obtained:
female NMRI mice = assay: Anorectic action: cumulative milk consumption after removal of feed for 24 hours; assay type: in vivo; conditions: for cumulative milk consumption by treated animals: evaporated milk, monitored for 7 hours; for Reduction in cumulative milk consumption as % of the contol: vs control animals
Experimental: The anorectic action was tested on female NMRI mice. After removal of feed for 24 hours, the preparation to be tested was administered intraperitoneally (ip) or by gavage (po). The animals were housed singly and, with free access to drinking water, they were offered evaporated milk 30 minutes after administration of the preparation. The consumption of evaporated milk was determined and the general behavior of the animals was monitored every half an hour for 7 hours. The measured milk consumption was compared to that of vehicle-treated control animals.

SMILES: CS(=O)(=O)C1Cc2cc(Cl)ccc2C1=O (stereo not shown) [Example 2, 5-Chloro-2-methanesulfonylindan-1-one]
cumulative milk consumption by treated animals (female NMRI mice; 20 mg/kg ip): 05/1.16 ml
Reduction in cumulative milk consumption as % of the contol (female NMRI mice; 20 mg/kg ip): 70%

SMILES: CSC1Cc2cc(Cl)ccc2C1=O (stereo not shown) [Example 1, 5-Chloro-2-methylsulfanylindan-1-one]
cumulative milk consumption by treated animals (female NMRI mice; 10 mg/kg ip): 05/1.20 ml
Reduction in cumulative milk consumption as % of the contol (female NMRI mice; 10 mg/kg ip): 64%
melting point: 90 °C

Further lines, with some results ahead:

melting point: 89 °C
SMILES: O=C1c2ccc(Cl)cc2CC1Sc1ccccc1 (stereo not shown) [Example 3, 5-chloro-2-phenylsulfanylindan-1-one]

melting point: 228.87 °C
SMILES: C[S+]([O-])C1Cc2cc(Cl)ccc2C1=O (stereo not shown) [Example 9, 5-chloro-2-methanesulfinylindan-1-one]
cumulative milk consumption by treated animals (female NMRI mice; 50 mg/kg po): 05/1.16 ml
Reduction in cumulative milk consumption as % of the contol (female NMRI mice; 50 mg/kg po): 73%

melting point: 133 °C
SMILES: O=C1c2ccc(Cl)cc2CC1S(=O)(=O)c1ccccc1 (stereo not shown) [Example 4, 2-benzenesulfonyl-5-chloroindan-1-one]
